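1) Cells in 96-well plates. 2) Compound, 48 h, 5 concentrations. 3) Linear interpolation between surrounding doses. 4) Unreached endpoint = highest concentration. Here, GI50 denotes the concentration required for 50% inhibition of growth. TGI: concentration producing complete growth inhibition.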
Legend:
Test in all cases: DTP human tumour cell line panel, 48 h
SNB-19 CNS = test system: SNB-19 CNS
CAKI-1 renal = test system: CAKI-1 renal
786-0 renal = test system: 786-0 renal
SNB-75 CNS = test system: SNB-75 CNS
IGROV1 ovarian = test system: IGROV1 ovarian
OVCAR-4 ovarian = test system: OVCAR-4 ovarian
HCT-15 colon = test system: HCT-15 colon
NCI-H460 lung = test system: NCI-H460 lung
COLO 205 colon = test system: COLO 205 colon
SF-539 CNS = test system: SF-539 CNS
KM12 colon = test system: KM12 colon
DU-145 prostate = test system: DU-145 prostate
SK-MEL-28 melanoma = test system: SK-MEL-28 melanoma
HS 578T breast = test system: HS 578T breast
NCI/ADR-RES ovarian = test system: NCI/ADR-RES ovarian
HCT-116 colon = test system: HCT-116 colon
MDA-MB-231 breast = test system: MDA-MB-231 breast
HL-60(TB) leukemia = test system: HL-60(TB) leukemia
HOP-62 NSCLC = test system: HOP-62 NSCLC
ACHN renal = test system: ACHN renal
MCF7 breast = test system: MCF7 breast
MDA-MB-435 = test system: MDA-MB-435
SF-295 CNS = test system: SF-295 CNS
EKVX NSCLC = test system: EKVX NSCLC
K-562 leukemia = test system: K-562 leukemia
SR leukemia = test system: SR leukemia
BT-549 breast = test system: BT-549 breast
LOX IMVI melanoma = test system: LOX IMVI melanoma
MALME-3M melanoma = test system: MALME-3M melanoma
TK-10 renal = test system: TK-10 renal
SN12C renal = test system: SN12C renal
RXF 393 renal = test system: RXF 393 renal
SK-OV-3 ovarian = test system: SK-OV-3 ovarian
CCRF-CEM leukemia = test system: CCRF-CEM leukemia
A549 NSCLC = test system: A549 NSCLC
SF-268 CNS = test system: SF-268 CNS
UO-31 renal = test system: UO-31 renal
SK-MEL-5 melanoma = test system: SK-MEL-5 melanoma
UACC-257 melanoma = test system: UACC-257 melanoma
SW-620 colon = test system: SW-620 colon
SK-MEL-2 melanoma = test system: SK-MEL-2 melanoma
NCI-H226 lung = test system: NCI-H226 lung
OVCAR-8 ovarian = test system: OVCAR-8 ovarian
HT29 colon = test system: HT29 colon
U251 CNS = test system: U251 CNS
MOLT-4 leukemia = test system: MOLT-4 leukemia
RPMI-8226 leukemia = test system: RPMI-8226 leukemia
OVCAR-5 ovarian = test system: OVCAR-5 ovarian
OVCAR-3 ovarian = test system: OVCAR-3 ovarian
M14 melanoma = test system: M14 melanoma
UACC-62 melanoma = test system: UACC-62 melanoma
A498 renal = test system: A498 renal
PC-3 prostate = test system: PC-3 prostate
HOP-92 NSCLC = test system: HOP-92 NSCLC
HCC-2998 colon = test system: HCC-2998 colon
NCI-H522 lung = test system: NCI-H522 lung
T-47D breast = test system: T-47D breast

## Cc1cccc2sc(/N=C(\N)C(Br)Br)nc12
SNB-19 CNS
  GI50: 3.23 µM
  TGI: 15.1 µM
CAKI-1 renal
  GI50: 0.82 µM
  TGI: 2.1 µM
786-0 renal
  GI50: 1.81 µM
  TGI: 4.14 µM
SNB-75 CNS
  GI50: 2.01 µM
  TGI: 10.6 µM
IGROV1 ovarian
  GI50: 1.62 µM
  TGI: 3.75 µM
OVCAR-4 ovarian
  GI50: 2 µM
  TGI: 6.5 µM
HCT-15 colon
  GI50: 1.25 µM
  TGI: 6.81 µM
NCI-H460 lung
  GI50: 0.654 µM
  TGI: 2.59 µM
COLO 205 colon
  GI50: 1.25 µM
  TGI: 2.93 µM
SF-539 CNS
  GI50: 1.42 µM
  TGI: 3.34 µM
KM12 colon
  GI50: 1.99 µM
  TGI: 11.8 µM
DU-145 prostate
  GI50: 1.94 µM
  TGI: 11.1 µM
SK-MEL-28 melanoma
  GI50: 1.91 µM
  TGI: 5.26 µM
HS 578T breast
  GI50: 2.32 µM
  TGI: 9.79 µM
NCI/ADR-RES ovarian
  GI50: 1.67 µM
  TGI: 7.1 µM
HCT-116 colon
  GI50: 0.52 µM
  TGI: 1.99 µM
MDA-MB-231 breast
  GI50: 2.11 µM
  TGI: 7.82 µM
HL-60(TB) leukemia
  GI50: 1.83 µM
  TGI: 7.13 µM
HOP-62 NSCLC
  GI50: 2.7 µM
  TGI: 12.1 µM
ACHN renal
  GI50: 1.07 µM
  TGI: 3.86 µM
MCF7 breast
  GI50: 0.819 µM
  TGI: 3.8 µM
MDA-MB-435
  GI50: 1.33 µM
  TGI: 2.92 µM
SF-295 CNS
  GI50: 3.65 µM
  TGI: 15.5 µM
EKVX NSCLC
  GI50: 3.61 µM
  TGI: 14.2 µM
K-562 leukemia
  GI50: 1.07 µM
  TGI: 12.8 µM
SR leukemia
  GI50: 2.01 µM
  TGI: 7.45 µM
BT-549 breast
  GI50: 1.66 µM
  TGI: 3.55 µM
LOX IMVI melanoma
  GI50: 0.158 µM
  TGI: 0.345 µM
MALME-3M melanoma
  GI50: 1.64 µM
  TGI: 3.66 µM
TK-10 renal
  GI50: 4.3 µM
  TGI: 15.5 µM
SN12C renal
  GI50: 1.68 µM
  TGI: 3.92 µM
RXF 393 renal
  GI50: 1.32 µM
  TGI: 3.32 µM
SK-OV-3 ovarian
  GI50: 4 µM
  TGI: 16 µM
CCRF-CEM leukemia
  GI50: 2.67 µM
  TGI: 8.12 µM
A549 NSCLC
  GI50: 2.73 µM
  TGI: 10.4 µM
SF-268 CNS
  GI50: 2.24 µM
  TGI: 13.1 µM
UO-31 renal
  GI50: 1.23 µM
  TGI: 7.53 µM
SK-MEL-5 melanoma
  GI50: 3.03 µM
  TGI: 9.42 µM
UACC-257 melanoma
  GI50: 2.9 µM
  TGI: 11.5 µM
SW-620 colon
  GI50: 0.659 µM
  TGI: 2.41 µM
SK-MEL-2 melanoma
  GI50: 2.45 µM
  TGI: 7.5 µM
NCI-H226 lung
  GI50: 1.82 µM
  TGI: 4.13 µM
OVCAR-8 ovarian
  GI50: 2.11 µM
  TGI: 7.27 µM
HT29 colon
  GI50: 1.18 µM
  TGI: 3.53 µM
U251 CNS
  GI50: 1.31 µM
  TGI: 3.3 µM
MOLT-4 leukemia
  GI50: 1.72 µM
  TGI: 11.5 µM
RPMI-8226 leukemia
  GI50: 2.12 µM
  TGI: 9.51 µM
OVCAR-5 ovarian
  GI50: 2.52 µM
  TGI: 7.5 µM
OVCAR-3 ovarian
  GI50: 1.68 µM
  TGI: 4.38 µM
M14 melanoma
  GI50: 1.39 µM
  TGI: 3.71 µM
UACC-62 melanoma
  GI50: 2.54 µM
  TGI: 12 µM
A498 renal
  GI50: 12.5 µM
  TGI: 25.1 µM
PC-3 prostate
  GI50: 1.93 µM
  TGI: 6.8 µM
HOP-92 NSCLC
  GI50: 1.54 µM
  TGI: 6.39 µM
HCC-2998 colon
  GI50: 1.59 µM
  TGI: 3.45 µM
NCI-H522 lung
  GI50: 1.54 µM
  TGI: 3.08 µM
T-47D breast
  GI50: 2.54 µM
  TGI: 12.8 µM

Reference: PubChem BioAssay (NCI)
